The text below walks through data of patent US20260327242A1, “Platform and Scaffold for FAP Targeting Agents” (Erasmus University Medical Center Rotterdam, priority 2022, published 2026).

The conditions of data set [1]: vis-à-vis FAPI-04; cited from earlier work.
Data set [2] relates to FAP. The following applies: cited from earlier work.
Data set [3] deals with T1, FAP (Homo sapiens, UniProt Q12884).
T1 construct: expressed in transfected cells; host or cells: HT-1080.hFAP
T1 sequence (Q12884 1-760): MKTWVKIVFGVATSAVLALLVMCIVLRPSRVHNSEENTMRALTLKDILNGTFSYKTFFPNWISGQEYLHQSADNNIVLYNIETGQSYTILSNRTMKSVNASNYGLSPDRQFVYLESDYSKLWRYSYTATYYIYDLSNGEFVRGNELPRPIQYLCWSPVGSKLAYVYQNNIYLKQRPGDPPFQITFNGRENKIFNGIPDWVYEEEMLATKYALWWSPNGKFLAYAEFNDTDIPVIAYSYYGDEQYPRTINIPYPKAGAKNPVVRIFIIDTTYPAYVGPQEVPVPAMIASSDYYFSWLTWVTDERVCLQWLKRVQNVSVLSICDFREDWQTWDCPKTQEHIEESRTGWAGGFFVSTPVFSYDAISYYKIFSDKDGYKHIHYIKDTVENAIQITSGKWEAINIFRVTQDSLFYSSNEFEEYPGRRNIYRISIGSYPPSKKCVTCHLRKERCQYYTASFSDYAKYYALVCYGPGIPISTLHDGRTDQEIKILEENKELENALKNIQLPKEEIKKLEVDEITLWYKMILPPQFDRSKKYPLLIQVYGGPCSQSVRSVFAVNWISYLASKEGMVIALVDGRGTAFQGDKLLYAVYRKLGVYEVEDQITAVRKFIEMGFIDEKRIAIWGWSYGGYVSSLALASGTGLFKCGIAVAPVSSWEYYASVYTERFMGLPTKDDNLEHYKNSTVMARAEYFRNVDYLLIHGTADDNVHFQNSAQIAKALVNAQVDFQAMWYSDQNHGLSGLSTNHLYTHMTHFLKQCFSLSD
Briefly: Competitive binding assay against [^111In]In-FAPI-46 in HT-1080.hFAP cells. Particulars: 37° C., 1 h. As for the experimental part: The U-87 MG glioblastoma was cultured at 37° C. and 5% CO2 in Dulbecco's Modified Eagle Medium (DMEM) supplemented with 10% (v/v) fetal calf serum. HT-1080.hFAP cells were kept in culture in DMEM medium supplemented with fetal bovine serum (10%, FBS) and antibiotic antimycotic (1%, AA) at 37° C. and 5% CO2. For passaging, cells were detached using Trypsin-EDTA 0.05% when reaching 90% confluence and re-seeded at a dilution of 1:4.
Competition binding experiments were conducted by incubation of the [^111In]In-FAPI-46 radioligand with increasing concentrations of eFAP compound in HT-1080.hFAP cells at 37° C. for 1 h. Cells were then washed three times with binding buffer and lysed. The cell-associated radioactivity was measured in a γ-counter. The IC50 values were calculated by fitting the data by non-linear regression using GraphPad Prism.
Results with FABI-46 obtained in the same assay is included for comparison.

Molecules are shown by their SMILES.

On to `CN(CCCN1CCN(C(=O)CN2CCN(CC(=O)O)CCN(CC(=O)O)CCN(CC(=O)O)CC2)CC1)c1ccc2nccc(C(=O)NCC(=O)N3CC(F)(F)C[C@H]3C#N)c2c1` [FAPI-46], for which the “tumor-to-organ ratios (in words)” value in data set [1] is “improved tumor-to-organ ratios”.
Consider `N#C[C@@H]1CC(F)(F)CN1C(=O)CNC(=O)c1ccnc2ccccc12` [UAMC-1110], for which the “affinity to FAP (in words)” value in the data set on FAP [2] was “nanomolar affinity to FAP”.
For the compound `N#C[C@@H]1CC(F)(F)CN1C(=O)CNC(=O)c1ccnc2c(OCCCNC(=O)CN3CCN(CC(=O)O)CCN(CC(=O)O)CCN(CC(=O)O)CC3)cccc12` [eFAP-6, (S)-2,2′,2″-(10-(2-((3-((4-((2-(2-Cyano-4,4-difluoropyrrolidin-1-yl)-2-oxoethyl)carbamoyl)quinolin-8-yl)oxy)propyl)amino)-2-oxoethyl)-1,4,7,10-tetraazacyclododecane-1,4,7-triyl)triacetic acid], the “binding affinity for FAP (in words)” value at FAP [3] is recorded as “low nano-molar binding affinity for FAP”.
